According to patent publication US5968933A, “DNA-targeted alkylating agents” (Auckland Division Cancer Society of New Zealand Inc., priority 1994, dated 1999):
“Also recorded” adds a separate entry of the source. Read-outs that look alike come from different tables or passages of the source.

Columns and labels:
P388 cells = assay: Growth inhibition in vitro, P388 leukaemia; type: cell-based, murine
Procedure: (§1) Representative examples of compounds of the invention were tested for biological activity against tumors. Compounds 1 to 6 and 14 to 21, prepared as described above, were tested for their ability to inhibit growth in vitro of cells of the wild-type murine leukaemia cell line P388, and the cell line AA8 which is derived from Chinese hamster ovary cells. For each compound, the IC50, ie. the concentration of compound which inhibited cell growth in treated cultures to 50% of that of controls, was determined, using means of three determinations. In addition, a hypersensitivity factor was determined by comparing activity of the compounds against AA8 cells to activity against UV4. The latter cell line is deficient in aspects of the excision repair pathway for removing DNA adducts, and is hypersensitive to DNA-alkylating agents, especially interstrand crosslinking agents. Previous work has shown that the ratio of IC50 s determined in the wild-type AA8 and mutant UV4 lines (the hypersensitivity factor HF) is a determinant of the mode of cell killing by alkylating agents (Palmer, B. D. et al, J. Med. Chem., 1990 33 112-121; Wilson, W. R. et al, J. Med. Chem., 1989 32 31-38). Compounds with HFs of ca. 1 are unlikely to kill cells via DNA alkylation events. Compounds which show high HF values are likely to form bulky adducts or cross-links,with the latter being especially likely for compounds showing the highest HF values (>ca. 25) (Wilson et al, op. cit.).
(§2) Cell lines were maintained in exponential growth phase by subculturing in RPMI 1640 (P338) or Alpha MEM (AA8, UV4) containing 10% fetal calf serum, as previously described (Palmer et al, op.cit.; Baguley, B. C. and Wilson, W. R., Eur. J. Cancer Clin. Oncol., 1987 23 607-613). IC50 values were determined using log-phase cultures in 96-well microculture plates, and were calculated as the nominal drug concentration required to reduce the cell density to 50% of control values, using 8 control cultures on each microplate. For P388 cultures, drug was present throughout the growth period (72 h), and final cell densities were determined using a minor modification of the MTT method of Mossman (Mossman, T., J. Immunol. Methods, 1983 65 55-63). For AA8 and UV4 cultures, drug exposure was terminated after 18 h by washing three times with fresh medium. Cultures were then grown for a further 72 h before determining cell density by staining with methylene blue (Finlay, G. J. et al, Anal. Biochem., 1984 139 272-277).

AA8 cells = assay: Growth inhibition in vitro, AA8; type: cell-based, Chinese hamster
Procedure: as §1, §2

AA8 and UV4 cells = assay: Hypersensitivity factor (AA8/UV4 IC50 ratio); type: cell-based, Chinese hamster; details: ratio of IC50s AA8/UV4
Procedure: as §1, §2

P338 murine leukaemia = type: in vivo, mice; details: for % Increase in lifespan: single i.p. dose 24 h after tumour inoculation, at optimal dose (mg/kg: 1 30; 2 30; 3 13.3; 4 3.9; 5 5.9; 6 8.9); for in vivo antitumour activity: P388, single-dose protocol
S. typhimurium TA98 = assay: Bacterial mutagenicity, plate incorporation assay, TA98; details: mean ± SD
S. typhimurium TA100 = assay: Bacterial mutagenicity, plate incorporation assay, TA100; details: for reversion colonies, TA100: mean ± SD
S. typhimurium TA102 = assay: Bacterial mutagenicity, plate incorporation assay, TA102; details: mean ± SD
linearized pSV2gpt DNA = assay: DNA crosslinking assay (agarose gel electrophoresis of linearized plasmid); type: biochemical; details: 2 h at 30° C., TE-80 buffer pH 8
Procedure: The ability of representative compounds of the invention to bind to and cross-link DNA was examined. This was carried out by agarose gel electrophoresis of plasmid DNA using linearized pSV2gpt DNA (Tindall, K. R. and Stankowski, L. F.; Mutation Research, 1989 220 241-245) and the method reported by Valu et al, 1990, op.cit. Briefly, linearized pSV2gpt DNA (1 μL of a 1 mg/mL solution) was incubated with drug in TE-80 buffer (10 mM Tris.HCl, 1 mM EDTA at pH 8), shielded from ambient light, for 2 h at 30° C., then denatured by the addition of […] of 1% sodium dodecyl sulfate and 10 μL of 50 mM methylmercury hydroxide and incubated for a further 30 min at 20° C. in the dark. Renaturation of drug-treated DNA samples was carried out by incubation with 2.5 μL of 2-mercaptoethanol for 1 h. Samples were prepared for electrophoresis by the addition of 0.1 mg/mL bromophenol blue, 0.5 μg/mL ethidium bromide and 5 μL of 40% sucrose. Electrophoresis was carried out at 120V in 89 mM tris/borate buffer at pH 8 containing 2 mM EDTA and 0.5 μg/mL ethidium bromide. DNA was visualized using 302 nm trans-illumination, and was photographed using Polaroid type 55 film and a Wratten 3A filter.
After drug treatment, DNA is denatured to the single stranded form, which runs as a lower band in the gels (see lanes 1 and 2 in FIG. 1). Cross-linking by the drugs is evidenced by the appearance of increasing amounts of renatured, double stranded DNA, as shown by the upper band in the gels, corresponding to the band for untreated DNA seen in lane 1.

calf thymus DNA [1] = assay: Rate of alkylation of calf thymus DNA by increase in DNA-bound fluorescence; type: biochemical; design: unit not given here
calf thymus DNA [2] = assay: Reversible DNA binding by spectrophotometric Scatchard analysis; details: 20° C., 0.01M HEPES buffer, pH 7.00
[3] = test system: Saccharomyces cerevisiae strain D5; details: yeast strain D5, in words
[4] = 80 μg/plate, square brackets: toxicity becoming apparent
[5] = 40 μg/plate, square brackets: toxicity becoming apparent
[6] = P388 cells, 72 h, MTT, read-out: IC50
[7] = AA8 cells, 18 h exposure, then 72 h growth, methylene blue, read-out: IC50
[8] = 120 μg/plate, square brackets: toxicity becoming apparent
[9] = compound 4 versus compounds 2 and 3

## CN1CCN(c2ccc3nc(-c4ccc5nc(-c6ccc(N(C)CCCl)cc6)[nH]c5c4)[nH]c3c2)CC1 [Compound 1, 2-[2-[4-(N-methyl-N-(2-chloroethyl)amino)phenyl]-5-benzimidazolyl]-5-(1-methyl-4-piperazinyl)benzimidazole]
P388 cells; Mus musculus, P388, 72 h
  IC50: 500 nM
AA8 cells; Cricetulus griseus, CHO-AA8
  IC50: 5750 nM
AA8 and UV4 cells
  Hypersensitivity factor: 14
P338 murine leukaemia; single i.p. dose
  Optimal dose: 30 mg/kg
P338 murine leukaemia
  % Increase in lifespan: 86%
S. typhimurium TA98; 4 μg/plate
  reversion colonies, TA98: 70 ± 3
S. typhimurium TA98; 10 μg/plate
  reversion colonies, TA98: 62 ± 7
S. typhimurium TA98; 20 μg/plate
  reversion colonies, TA98: 67 ± 9
S. typhimurium TA98; 40 μg/plate
  reversion colonies, TA98: 52 ± 7
S. typhimurium TA98; [4]
  reversion colonies, TA98: 65 ± 3
S. typhimurium TA100; 4 μg/plate
  reversion colonies, TA100: 196 ± 23
S. typhimurium TA100; 10 μg/plate
  reversion colonies, TA100: 162 ± 21
S. typhimurium TA100; 20 μg/plate
  reversion colonies, TA100: 172 ± 13
S. typhimurium TA100; 40 μg/plate
  reversion colonies, TA100: 226 ± 23
S. typhimurium TA100; 80 μg/plate
  reversion colonies, TA100: 207 ± 12
S. typhimurium TA102; 4 μg/plate
  reversion colonies, TA102: 406 ± 20
S. typhimurium TA102; 10 μg/plate
  reversion colonies, TA102: 417 ± 26
S. typhimurium TA102; 20 μg/plate
  reversion colonies, TA102: 442 ± 62
S. typhimurium TA102; [5]
  reversion colonies, TA102: 442 ± 43

## CN1CCN(c2ccc3nc(-c4ccc5nc(Cc6ccc(N(CCCl)CCCl)cc6)[nH]c5c4)[nH]c3c2)CC1 [Compound 3, 2-[2-[[4-(N,N-bis(2-chloroethyl)amino)phenyl]methyl]-5-benzimidazolyl]-5-(1-methyl-4-piperazinyl)benzimidazole]
Linearized pSV2gpt DNA
  Cross-linking: No
Calf thymus DNA [1]
  Rate constant for alkylation: 3.01 × 10^4
P388 cells; [6]
  IC50: 850 nM
AA8 cells; [7]
  IC50: 1500 nM
AA8 and UV4 cells
  Hypersensitivity factor: 59
P338 murine leukaemia
  in vivo antitumour activity: retained significant in vivo activity
  % Increase in lifespan: 71%
P338 murine leukaemia; single i.p. dose
  Optimal dose: 13.3 mg/kg
S. typhimurium TA98; 4 μg/plate
  reversion colonies, TA98: 71 ± 2
S. typhimurium TA98; 10 μg/plate
  reversion colonies, TA98: 83 ± 1
S. typhimurium TA98; 20 μg/plate
  reversion colonies, TA98: 87 ± 6
S. typhimurium TA98; 40 μg/plate
  reversion colonies, TA98: 86 ± 5
S. typhimurium TA98; [4]
  reversion colonies, TA98: 77 ± 10
S. typhimurium TA98; [8]
  reversion colonies, TA98: 86 ± 8
S. typhimurium TA100; 4 μg/plate
  reversion colonies, TA100: 154 ± 8
S. typhimurium TA100; 10 μg/plate
  reversion colonies, TA100: 130 ± 10
S. typhimurium TA100; 20 μg/plate
  reversion colonies, TA100: 137 ± 43
S. typhimurium TA100; 40 μg/plate
  reversion colonies, TA100: 167 ± 24
S. typhimurium TA100; 80 μg/plate
  reversion colonies, TA100: 167 ± 8
S. typhimurium TA100; [8]
  reversion colonies, TA100: 157 ± 12
S. typhimurium TA102; 4 μg/plate
  reversion colonies, TA102: 297 ± 38
S. typhimurium TA102; 10 μg/plate
  reversion colonies, TA102: 237 ± 64
S. typhimurium TA102; 20 μg/plate
  reversion colonies, TA102: 304 ± 16
S. typhimurium TA102; [5]
  reversion colonies, TA102: 268 ± 59
S. typhimurium TA102; [8]
  reversion colonies, TA102: 505 ± 121
Calf thymus DNA [2]
  Site size (Number of nucleotide residues): 3.0 nucleotide residues

## CN1CCN(c2ccc3nc(-c4ccc5nc(CCc6ccc(N(CCCl)CCCl)cc6)[nH]c5c4)[nH]c3c2)CC1 [Compound 4, 2-[2-[2-[4-(N,N-bis(2-chloroethyl)amino)phenyl]ethyl]-5-benzimidazolyl]-5-(1-methyl-4-piperazinyl)benzimidazole]
Linearized pSV2gpt DNA
  Cross-linking: No
Calf thymus DNA [1]
  Rate constant for alkylation: 4.62 × 10^4
P388 cells; [6]
  IC50: 10 nM
P388 cells; [9]
  increase in cytotoxicity in P388: 80 fold
AA8 cells; [7]
  IC50: 330 nM
AA8 cells; [9]
  increase in cytotoxicity in AA8: 5 fold
AA8 and UV4 cells
  Hypersensitivity factor: 47
P338 murine leukaemia
  in vivo antitumour activity: retained significant in vivo activity
  % Increase in lifespan: 52%
P338 murine leukaemia; single i.p. dose
  Optimal dose: 3.9 mg/kg
P338 murine leukaemia; single i.p. dose, optimal dose, group of six
  average number of animals in a group of six which were long-term survivors: 1 animals
[3]
  aberrant colonies in yeast: some aberrant colonies
  mitotic crossing-over: weak mitotic crossing-over
S. typhimurium TA98; 4 μg/plate
  reversion colonies, TA98: 71 ± 2
S. typhimurium TA98; 10 μg/plate
  reversion colonies, TA98: 74 ± 10
S. typhimurium TA98; 20 μg/plate
  reversion colonies, TA98: 75 ± 1
S. typhimurium TA98; 40 μg/plate
  reversion colonies, TA98: 65 ± 6
S. typhimurium TA100; 4 μg/plate
  reversion colonies, TA100: 172 ± 4
S. typhimurium TA100; 10 μg/plate
  reversion colonies, TA100: 231 ± 7
S. typhimurium TA100; 20 μg/plate
  reversion colonies, TA100: 264 ± 12
S. typhimurium TA100; 40 μg/plate
  reversion colonies, TA100: 237 ± 29
S. typhimurium TA100; 80 μg/plate
  reversion colonies, TA100: 207 ± 10
S. typhimurium TA100; [8]
  reversion colonies, TA100: 232 ± 19
S. typhimurium TA100; statistical analysis
  mutagenicity in TA100: could be considered to show a mutagenic effect in TA100; also recorded: mutagenic ability
S. typhimurium TA102; 4 μg/plate
  reversion colonies, TA102: 340 ± 26
S. typhimurium TA102; 10 μg/plate
  reversion colonies, TA102: 366 ± 49
S. typhimurium TA102; 20 μg/plate
  reversion colonies, TA102: 429 ± 17
S. typhimurium TA102; [5]
  reversion colonies, TA102: 465 ± 41
S. typhimurium TA102; [4]
  reversion colonies, TA102: 609 ± 74
Calf thymus DNA [2]
  Site size (Number of nucleotide residues): 2.8 nucleotide residues

## CCN(CCCl)c1ccc(CCCc2nc3ccc(-c4nc5ccc(N6CCN(C)CC6)cc5[nH]4)cc3[nH]2)cc1 [Compound 14]
P388 cells; Mus musculus, P388, 72 h
  IC50: 740 nM

## CCN(CCCl)c1ccc(CCc2nc3ccc(-c4nc5ccc(N6CCN(C)CC6)cc5[nH]4)cc3[nH]2)cc1 [Compound 15, 2-[2-[2-[4-(N-Ethyl-N-(2-chloroethyl)amino)phenyl]ethyl]-5-benzimidazoyl]-5-(1-methyl-4-piperazinyl)benzimidazole]
P388 cells; Mus musculus, P388, 72 h
  IC50: 120 nM

## CCN(CCCl)c1ccc(CCCCCCc2nc3ccc(-c4nc5ccc(N6CCN(C)CC6)cc5[nH]4)cc3[nH]2)cc1 [Compound 16, 2-[2-[6-[4-(N-ethyl-N-(2-chloroethyl)amino)phenyl]hexyl]-5-benzimidazolyl]-5-(1-methyl-4-piperazinyl)benzimidazole]
P388 cells; Mus musculus, P388, 72 h
  IC50: 370 nM

## CCN(CCCl)c1ccc(Cc2nc3ccc(-c4nc5ccc(N6CCN(C)CC6)cc5[nH]4)cc3[nH]2)cc1 [Compound 17, 2-[2-[[4-(N-ethyl-N-(2-chloroethyl)amino)phenyl]methyl]-5-benzimidazoyl]-5-(1-methyl-4-piperazinyl)benzimidazole]
P388 cells; Mus musculus, P388, 72 h
  IC50: 90 nM

## CN1CCN(c2ccc3nc(-c4ccc5nc(CCCc6cccc(N(CCCl)CCCl)c6)[nH]c5c4)[nH]c3c2)CC1 [Compound 18]
P388 cells; [6]
  IC50: > 1000 nM

## CCN(CCCl)c1cccc(CCCc2nc3ccc(-c4nc5ccc(N6CCN(C)CC6)cc5[nH]4)cc3[nH]2)c1 [Compound 19, 2-[2-[3-[3-(N-ethyl-N-(2-chloroethyl)amino)phenyl]propyl]-5-benzimidazolyl]-5-(1-methyl-4-piperazinyl)-benzimidazole]
P388 cells; Mus musculus, P388, 72 h
  IC50: < 60 nM

## CN1CCN(c2ccc3nc(-c4ccc5nc(CCCc6ccccc6N(CCCl)CCCl)[nH]c5c4)[nH]c3c2)CC1 [Compound 20]
P388 cells; [6]
  IC50: 610 nM

## CCN(CCCl)c1ccccc1CCCc1nc2ccc(-c3nc4ccc(N5CCN(C)CC5)cc4[nH]3)cc2[nH]1 [Compound 21, 2-[2-[3-[2-(N-ethyl-N-(2chloroethyl)amino)phenyl]propyl]-5-benzimidazolyl]-5-(1-methyl-4-piperazinyl)-benzimidazole]
P388 cells; Mus musculus, P388, 72 h
  IC50: < 60 nM
